Laboratory results reported in patent publication US12559750B2, “Methods and compositions for treatment of polycystic kidney disease” (Regulus Therapeutics Inc., priority 2021, dated 2026).

Tests used:
Pcy/DBA mice = test: Efficacy in Pcy/DBA mouse model of PKD, alone and with tolvaptan; assay type: in vivo;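 note: dosing began at 6 weeks of age, with endpoints collected 7 days after the last dose and PBS-injected wild-type DBA/2J mice as the normal reference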
Procedure: The efficacy of RG-NG-1015 was also evaluated in the Pcy/DBA mouse model of PKD alone and in combination with tolvaptan.
As outlined in FIGS. 6A and 6B, five groups of male Pcy/DBA mice (n=13 per treatment group) were treated subcutaneously with PBS or RG-NG-1015 at 25, 5, 1, or 0.2 mg/kg once every two weeks (Q2W). Two groups of male Pcy/DBA mice (n=13 per group) were also treated with RG-NG-1015 at 50 mg/kg once every four weeks (Q4W) or at 12.5 mg/kg once weekly (QW). Another four groups of male Pcy/DBA mice (n=13 per group) were treated subcutaneously with PBS or RG-NG-1015 at 25, 5, or 1 mg/kg Q2W in combination with tolvaptan at 0.3% (w/w chow) ad libitum. A group of male WT-BDA/2J mice received subcutaneous injections of PBS Q2W was included in the study as a normal range reference. Mice were randomized into treatment groups at 5 weeks of age, and treatment started at 6 weeks of age for 17 weeks and were sacrificed 7 days after the final treatment. Kidney weight, body weight, kidney cyst index, urine Ngal-to-Creatinine ratio (Ngal/Cr) were measured.

miR-17 = conditions: mIMCD3, mouse, Normal; value reported by Lee et al., Nat. Commun., 2019; read-out: miR-17 PD-Sig (EC50); cited from earlier work
[1] = RG-NG-1015 0.2 mg/kg SC Q2W, 17 weeks
[2] = RG-NG-1015 1 mg/kg SC Q2W + 0.3% Tolvaptan in chow
[3] = RG-NG-1015 1 mg/kg SC Q2W, 17 weeks
[4] = RG-NG-1015 5 mg/kg SC Q2W + 0.3% Tolvaptan in chow
[5] = RG-NG-1015 5 mg/kg SC Q2W, 17 weeks
[6] = RG-NG-1015 12.5 mg/kg SC QW, 17 weeks
[7] = RG-NG-1015 25 mg/kg SC Q2W + 0.3% Tolvaptan in chow
[8] = RG-NG-1015 25 mg/kg SC Q2W, 17 weeks
[9] = RG-NG-1015 50 mg/kg SC Q4W, 17 weeks

## ASGSCMAFCFUFUMUSAS [RG-NG-1015]
Pcy/DBA mice; [1]
  Mean Cystic Area: 47.09%
  Mean Cystic Area % Inhibition: 24.8%
  Mean KW/BW: 78 mg/g
  Mean KW/BW % Inhibition: 18.7%
  Mean Urine Ngal/Cr: 18.38 mg/mg
  Mean Urine Ngal/Cr % Inhibition: 13.5%
Pcy/DBA mice; [2]
  Mean Cystic Area: 41.91%
  Mean Cystic Area % Inhibition: 34.3%
  Mean Cystic Area Bliss Analysis: <Additive
  Mean KW/BW: 47.1 mg/g
  Mean KW/BW % Inhibition: 62.0%
  Mean KW/BW Bliss Analysis: Synergistic
  Mean Urine Ngal/Cr: 11.16 mg/mg
  Mean Urine Ngal/Cr % Inhibition: 49.8%
  Mean Urine Ngal/Cr Bliss Analysis: <Additive
Pcy/DBA mice; [3]
  Mean Cystic Area: 50.58%
  Mean Cystic Area % Inhibition: 18.4%
  Mean KW/BW: 82.4 mg/g
  Mean KW/BW % Inhibition: 12.5%
  Mean Urine Ngal/Cr: 15.18 mg/mg
  Mean Urine Ngal/Cr % Inhibition: 29.6%
Pcy/DBA mice; [4]
  Mean Cystic Area: 37.47%
  Mean Cystic Area % Inhibition: 42.5%
  Mean Cystic Area Bliss Analysis: <Additive
  Mean KW/BW: 45.6 mg/g
  Mean KW/BW % Inhibition: 64.1%
  Mean KW/BW Bliss Analysis: Synergistic
  Mean Urine Ngal/Cr: 5.84 mg/mg
  Mean Urine Ngal/Cr % Inhibition: 76.6%
  Mean Urine Ngal/Cr Bliss Analysis: Additive
Pcy/DBA mice; [5]
  Mean Cystic Area: 44.58%
  Mean Cystic Area % Inhibition: 29.4%
  Mean KW/BW: 70 mg/g
  Mean KW/BW % Inhibition: 29.9%
  Mean Urine Ngal/Cr: 14.65 mg/mg
  Mean Urine Ngal/Cr % Inhibition: 32.3%
Pcy/DBA mice; [6]
  Mean Cystic Area: 44.99%
  Mean Cystic Area % Inhibition: 28.7%
  Mean KW/BW: 74.5 mg/g
  Mean KW/BW % Inhibition: 23.6%
  Mean Urine Ngal/Cr: 8.82 mg/mg
  Mean Urine Ngal/Cr % Inhibition: 61.6%
Pcy/DBA mice; [7]
  Mean Cystic Area: 38.61%
  Mean Cystic Area % Inhibition: 40.4%
  Mean Cystic Area Bliss Analysis: <Additive
  Mean KW/BW: 42.2 mg/g
  Mean KW/BW % Inhibition: 68.9%
  Mean KW/BW Bliss Analysis: Synergistic
  Mean Urine Ngal/Cr: 5.04 mg/mg
  Mean Urine Ngal/Cr % Inhibition: 80.6%
  Mean Urine Ngal/Cr Bliss Analysis: Additive
Pcy/DBA mice; [8]
  Mean Cystic Area: 46.46%
  Mean Cystic Area % Inhibition: 26.0%
  Mean KW/BW: 66.9 mg/g
  Mean KW/BW % Inhibition: 34.3%
  Mean Urine Ngal/Cr: 11.36 mg/mg
  Mean Urine Ngal/Cr % Inhibition: 48.8%
Pcy/DBA mice; [9]
  Mean Cystic Area: 47.35%
  Mean Cystic Area % Inhibition: 24.3%
  Mean KW/BW: 67.1 mg/g
  Mean KW/BW % Inhibition: 34.0%
  Mean Urine Ngal/Cr: 9.32 mg/mg
  Mean Urine Ngal/Cr % Inhibition: 59.1%

## ASGSCMAFCFUFUMUSGS [RGLS4326, reference compound]
miR-17
  EC50: 77.2 nM
